Test results taken from patent US11566007B2, “Ras inhibitors” (Revolution Medicines, Inc., priority 2019, dated 2023).

How the values were obtained:
[1] = test system: NCI-H358 cells (K-Ras G12C); assay: Potency assay: pERK in NCI-H358 cells; format: cell-based, human; details: Homo sapiens, NCI-H358; H358 KRAS G12C; read-out: pERK EC50
Outline: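 Inhibition of cellular pERK after a 4 h treatment, detected by AlphaLISA or In-Cell Western. IC50 from a four-parameter concentration-response fit.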

[2] = biological target: K-Ras G12C (Homo sapiens (Human), UniProt P01116+P62937, G12C); assay: Ras-Raf (BRAF RBD) disruption / FRET / MOA assay, KRAS G12C; format: biochemical; details: KRAS G12C; Ras-Raf disruption/FRET/MOA assay; read-out: IC50* KRAS G12C FRET data
Outline: (§1)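 A 10-point, 3-fold dilution series topping at 30 μM final was incubated 3 h at 25° C with the Ras/cyclophilin A/BRAF RBD mixture.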

[3] = biological target: K-Ras G13C (Homo sapiens (Human), UniProt P01116+P62937, G13C); assay: Ras-Raf (BRAF RBD) disruption / FRET / MOA assay, KRAS G13C; format: biochemical; details: KRAS G13C; Ras-Raf disruption/FRET/MOA assay; read-out: IC50* KRAS G13C FRET data
Outline: as §1

[4] = biological target: KRAS G12S (Homo sapiens (Human), UniProt P01116+P62937, G12S); assay: Ras-Raf (BRAF RBD) disruption / FRET / MOA assay, KRAS G12S; format: biochemical; details: Ras-Raf disruption/FRET/MOA assay; class symbols; read-out: KRAS G12S FRET data IC50
Outline: as §1

[5] = biological target: KRAS G12D (Homo sapiens (Human), UniProt P01116+P62937, G12D); assay: Ras-Raf (BRAF RBD) disruption / FRET / MOA assay, KRAS G12D; format: biochemical; details: Ras-Raf disruption/FRET/MOA assay; class symbols; read-out: KRAS G12D FRET data IC50
Outline: as §1

[6] = biological target: KRAS G12V (Homo sapiens (Human), UniProt P01116+P62937, G12V); assay: Ras-Raf (BRAF RBD) disruption / FRET / MOA assay, KRAS G12V; format: biochemical; details: read-out: IC50* KRAS G12V FRET data
Outline: as §1

[7] = biological target: KRAS WT (Homo sapiens (Human), UniProt P01116+P62937); assay: Ras-Raf (BRAF RBD) disruption / FRET / MOA assay, KRAS WT; format: biochemical; details: read-out: IC50* KRAS WT FRET data
Outline: as §1

[8] = biological target: KRAS G13D (Homo sapiens (Human), UniProt P01116+P62937, G13D); assay: Ras-Raf (BRAF RBD) disruption / FRET / MOA assay, KRAS G13D; format: biochemical; details: read-out: IC50* KRAS G13D FRET data
Outline: as §1

[9] = biological target: KRAS Q61H (Homo sapiens (Human), UniProt P01116+P62937, Q61H); assay: Ras-Raf (BRAF RBD) disruption / FRET / MOA assay, KRAS Q61H; format: biochemical; details: Ras-Raf disruption/FRET/MOA assay; class symbols; read-out: KRAS Q61H FRET data IC50
Outline: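 Compounds (30 μM top final, 10-point 3-fold dilutions) incubated 3 h at 25° C with nucleotide-loaded Ras, cyclophilin A and BRAF RBD. Detection with 10 nM anti-His Eu-W1024 and 50 nM anti-GST allophycocyanin over another 1.5 h. Lowered TR-FRET ratio relative to DMSO wells gives IC50.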

[10] = biological target: NRAS G12C (Homo sapiens (Human), UniProt P01111+P62937, G12C); assay: Ras-Raf (BRAF RBD) disruption / FRET / MOA assay, NRAS G12C; format: biochemical; details: read-out: IC50* NRAS G12C FRET data
Outline: as §1

[11] = biological target: NRAS Q61R (Homo sapiens (Human), UniProt P01111+P62937, Q61R); assay: Ras-Raf (BRAF RBD) disruption / FRET / MOA assay, NRAS Q61R; format: biochemical; details: NRAS Q61R; Ras-Raf disruption/FRET/MOA assay; read-out: IC50* NRAS Q61R FRET data
Procedure: (§2) The purpose of this biochemical assay is to measure the ability of test compounds to facilitate ternary complex formation between a nucleotide-loaded Ras isoform and cyclophilin A; the resulting ternary complex disrupts binding to a BRAF^RBD construct, inhibiting Ras signaling through a RAF effector.
(§3) […]. Compound is present in plate wells as a 10-point 3-fold dilution series starting at a final concentration of 30 μM. After incubation at 25° C. for 3 hours, a mixture of Anti-His Eu-W1024 and anti-GST allophycocyanin is then added to assay sample wells at final concentrations of 10 nM and 50 nM, respectively, and the reaction incubated for an additional 1.5 hours. […] Compounds that facilitate disruption of a Ras:RAF complex are identified as those eliciting a decrease in the TR-FRET ratio relative to DMSO control wells.
(§4) Note—The following protocol describes a procedure for monitoring disruption of K-Ras G12C (GMP-PNP) binding to BRAF^RBD by a compound of the invention. This protocol may also be executed substituting other Ras proteins or nucleotides.
(§5) The purpose of this biochemical assay was to measure the ability of test compounds to facilitate ternary complex formation between a nucleotide-loaded K-Ras isoform and Cyclophilin A; the resulting ternary complex disrupts binding to a BRAF^RBD construct, inhibiting K-Ras signaling through a RAF effector. Data is reported as IC50 values.
as §3, with “Compound was” for “Compound is”, “allophycocyanin was” for “allophycocyanin is”, “a K-Ras:RAF” for “a Ras:RAF”, “complex were” for “complex are”

[12] = biological target: NRAS Q61K (Homo sapiens (Human), UniProt P01111+P62937, Q61K); assay: Ras-Raf (BRAF RBD) disruption / FRET / MOA assay, NRAS Q61K; format: biochemical; details: NRAS Q61K; Ras-Raf disruption/FRET/MOA assay; read-out: IC50* NRAS Q61K FRET data
Procedure: as §2, §3, §4, §5
as §3, with “Compound was” for “Compound is”, “allophycocyanin was” for “allophycocyanin is”, “a K-Ras:RAF” for “a Ras:RAF”, “complex were” for “complex are”

[13] = biological target: NRAS WT (Homo sapiens (Human), UniProt P01111+P62937); assay: Ras-Raf (BRAF RBD) disruption / FRET / MOA assay, NRAS WT; format: biochemical; details: read-out: IC50* NRAS WT FRET data
Procedure: as §2, §3, §4, §5
as §3, with “Compound was” for “Compound is”, “allophycocyanin was” for “allophycocyanin is”, “a K-Ras:RAF” for “a Ras:RAF”, “complex were” for “complex are”

Sequence of K-Ras G12C (P01116-2 other isoform, or with tags, fused parts or gaps G12C): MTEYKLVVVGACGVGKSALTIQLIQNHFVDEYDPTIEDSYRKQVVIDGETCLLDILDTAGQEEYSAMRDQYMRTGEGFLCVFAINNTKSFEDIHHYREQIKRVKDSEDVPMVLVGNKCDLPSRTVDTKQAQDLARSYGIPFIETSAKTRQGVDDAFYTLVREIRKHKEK
Sequence of K-Ras G12C (P62937 whole entry): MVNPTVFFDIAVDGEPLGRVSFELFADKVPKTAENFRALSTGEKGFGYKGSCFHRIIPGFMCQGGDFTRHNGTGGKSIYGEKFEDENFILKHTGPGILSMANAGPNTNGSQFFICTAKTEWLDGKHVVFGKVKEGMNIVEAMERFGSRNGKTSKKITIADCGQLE
Sequence of KRAS Q61H (P01116-2 other isoform, or with tags, fused parts or gaps Q61H): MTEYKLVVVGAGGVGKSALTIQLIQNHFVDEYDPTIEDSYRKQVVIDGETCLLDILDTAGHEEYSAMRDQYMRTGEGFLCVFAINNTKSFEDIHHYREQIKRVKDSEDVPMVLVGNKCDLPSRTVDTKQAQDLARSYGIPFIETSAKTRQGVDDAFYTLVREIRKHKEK
Sequence of KRAS Q61H (P62937 whole entry): as the sequence (P62937 whole entry) above
Sequence of K-Ras G13C (P01116-2 other isoform, or with tags, fused parts or gaps G13C): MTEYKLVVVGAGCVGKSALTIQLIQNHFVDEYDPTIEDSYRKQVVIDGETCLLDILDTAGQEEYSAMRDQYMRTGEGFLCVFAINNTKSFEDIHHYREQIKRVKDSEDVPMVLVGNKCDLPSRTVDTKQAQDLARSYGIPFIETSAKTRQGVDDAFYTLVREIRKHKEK
Sequence of K-Ras G13C (P62937 whole entry): as the sequence (P62937 whole entry) above
Sequence of NRAS G12C (P01111 whole entry G12C): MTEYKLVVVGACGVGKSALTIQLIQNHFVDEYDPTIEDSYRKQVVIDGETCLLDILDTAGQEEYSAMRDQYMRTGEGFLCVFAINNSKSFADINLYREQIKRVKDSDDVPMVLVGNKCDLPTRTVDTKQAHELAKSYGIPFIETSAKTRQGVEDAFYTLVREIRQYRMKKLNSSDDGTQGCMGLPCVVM
Sequence of NRAS G12C (P62937 whole entry): as the sequence (P62937 whole entry) above
Sequence of KRAS G13D (P01116-2 other isoform, or with tags, fused parts or gaps G13D): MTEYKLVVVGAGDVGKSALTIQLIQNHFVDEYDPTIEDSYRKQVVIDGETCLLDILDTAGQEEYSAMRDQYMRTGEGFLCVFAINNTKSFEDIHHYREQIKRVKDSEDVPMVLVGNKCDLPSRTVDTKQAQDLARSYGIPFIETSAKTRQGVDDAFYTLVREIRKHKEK
Sequence of KRAS G13D (P62937 whole entry): as the sequence (P62937 whole entry) above
Sequence of KRAS G12V (P01116-2 other isoform, or with tags, fused parts or gaps G12V): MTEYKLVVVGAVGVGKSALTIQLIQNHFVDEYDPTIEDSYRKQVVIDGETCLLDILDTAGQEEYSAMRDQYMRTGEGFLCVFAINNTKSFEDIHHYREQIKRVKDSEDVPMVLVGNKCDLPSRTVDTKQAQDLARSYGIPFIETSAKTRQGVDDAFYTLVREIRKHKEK
Sequence of KRAS G12V (P62937 whole entry): as the sequence (P62937 whole entry) above
Sequence of NRAS Q61R (P01111 whole entry Q61R, canonical isoform): as the sequence (P01111 whole entry G12C) above, with C12G, Q61R counted along it
Sequence of NRAS Q61R (P62937 whole entry, canonical isoform): as the sequence (P62937 whole entry) above
Sequence of KRAS G12S (P01116-2 other isoform, or with tags, fused parts or gaps G12S): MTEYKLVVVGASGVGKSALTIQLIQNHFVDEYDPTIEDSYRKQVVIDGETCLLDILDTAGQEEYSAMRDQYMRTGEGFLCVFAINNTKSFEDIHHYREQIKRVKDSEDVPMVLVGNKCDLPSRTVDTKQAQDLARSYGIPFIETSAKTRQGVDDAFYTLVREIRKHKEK
Sequence of KRAS G12S (P62937 whole entry): as the sequence (P62937 whole entry) above
Sequence of KRAS G12D (P01116-2 other isoform, or with tags, fused parts or gaps G12D): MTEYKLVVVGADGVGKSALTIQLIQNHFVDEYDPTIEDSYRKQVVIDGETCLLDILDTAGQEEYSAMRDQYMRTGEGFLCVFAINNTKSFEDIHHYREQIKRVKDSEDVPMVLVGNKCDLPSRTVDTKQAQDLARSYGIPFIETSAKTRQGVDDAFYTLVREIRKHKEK
Sequence of KRAS G12D (P62937 whole entry): as the sequence (P62937 whole entry) above
Sequence of KRAS WT (P01116-2 other isoform, or with tags, fused parts or gaps): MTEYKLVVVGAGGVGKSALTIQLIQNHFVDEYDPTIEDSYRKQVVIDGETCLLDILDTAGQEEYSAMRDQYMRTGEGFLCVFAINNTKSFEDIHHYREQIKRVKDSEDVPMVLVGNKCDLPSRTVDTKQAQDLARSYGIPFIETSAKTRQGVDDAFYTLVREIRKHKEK
Sequence of KRAS WT (P62937 whole entry): as the sequence (P62937 whole entry) above
Sequence of NRAS Q61K (P01111 whole entry Q61K): as the sequence (P01111 whole entry G12C) above, with C12G, Q61K counted along it
Sequence of NRAS Q61K (P62937 whole entry): as the sequence (P62937 whole entry) above
Sequence of NRAS WT (P01111 whole entry): as the sequence (P01111 whole entry G12C) above, with C12G counted along it
Sequence of NRAS WT (P62937 whole entry): as the sequence (P62937 whole entry) above

CO[C@@H](C)c1ncccc1-c1c2c3cc(ccc3n1CC(F)(F)F)-c1csc(n1)C[C@H](NC(=O)[C@H](C(C)C)N(C)C(=O)N1C[C@@H]3OCCN(C(=O)/C=C/CF)[C@@H]3C1)C(=O)N1CCC[C@H](N1)C(=O)OCC(C)(C)C2 (atropisomer, axis not shown) [Example A571]
EC50 [1]: < 5000 nM
IC50 [2]: 100 to 1000 nM
IC50 [3]: 10 to 100 nM
IC50 [4]: 100 to 1000 nM
IC50 [5]: 1000 to 10000 nM
IC50 [6]: 100 to 1000 nM
IC50 [7]: 100 to 1000 nM
IC50 [8]: 1000 to 10000 nM
IC50 [9]: 100 to 1000 nM
IC50 [10]: 100 to 1000 nM
IC50 [11]: 100 to 1000 nM
IC50 [12]: 100 to 1000 nM
IC50 [13]: 100 to 1000 nM

CO[C@@H](C)c1ncccc1-c1c2c3cc(ccc3n1CC(F)(F)F)-c1csc(n1)C[C@H](NC(=O)[C@H](C(C)C)N(C)C(=O)N1C[C@@H]3OCCN(C(=O)/C=C/C(F)F)[C@@H]3C1)C(=O)N1CCC[C@H](N1)C(=O)OCC(C)(C)C2 (atropisomer, axis not shown) [Example A572]
EC50 [1]: < 5000 nM
IC50 [2]: 10 to 100 nM
IC50 [3]: 10 to 100 nM
IC50 [4]: 100 to 1000 nM
IC50 [5]: 1000 to 10000 nM
IC50 [6]: 100 to 1000 nM
IC50 [7]: 100 to 1000 nM
IC50 [8]: 1000 to 10000 nM
IC50 [9]: 100 to 1000 nM
IC50 [10]: 10 to 100 nM
IC50 [11]: 100 to 1000 nM
IC50 [12]: 100 to 1000 nM
IC50 [13]: 100 to 1000 nM

CO[C@@H](C)c1ncccc1-c1c2c3cc(ccc3n1CC(F)(F)F)-c1csc(n1)C[C@H](NC(=O)[C@H](C(C)C)N(C)C(=O)N1C[C@@H]3OCCN(C(=O)/C=C/CN(C)C)[C@@H]3C1)C(=O)N1CCC[C@H](N1)C(=O)OCC(C)(C)C2 (atropisomer, axis not shown) [Example A573]
EC50 [1]: < 5000 nM
IC50 [2]: 10 to 100 nM
IC50 [3]: 10 to 100 nM
IC50 [4]: 100 to 1000 nM
IC50 [5]: 1000 to 10000 nM
IC50 [6]: 1000 to 10000 nM
IC50 [7]: 100 to 1000 nM
IC50 [8]: 100 to 1000 nM
IC50 [9]: 100 to 1000 nM
IC50 [10]: 10 to 100 nM
IC50 [11]: 100 to 1000 nM
IC50 [12]: 100 to 1000 nM
IC50 [13]: 100 to 1000 nM

CO[C@@H](C)c1ncccc1-c1c2c3cc(ccc3n1CC(F)(F)F)-c1nc(nn1C)C[C@H](NC(=O)[C@H](C(C)C)N(C)C(=O)C1(F)CCN(C(=O)C#CC(C)(C)N(C)C)CC1)C(=O)N1CCC[C@H](N1)C(=O)OCC(C)(C)C2 (atropisomer, axis not shown) [Example A577]
EC50 [1]: < 5000 nM
IC50 [2]: < 10 nM
IC50 [3]: 10 to 100 nM
IC50 [4]: 10 to 100 nM
IC50 [5]: 100 to 1000 nM
IC50 [6]: 100 to 1000 nM
IC50 [7]: 100 to 1000 nM
IC50 [8]: 100 to 1000 nM
IC50 [9]: 10 to 100 nM
IC50 [10]: < 10 nM
IC50 [11]: 10 to 100 nM
IC50 [12]: 10 to 100 nM
IC50 [13]: 10 to 100 nM

C=CC(=O)N1CCO[C@@H]2CCN(C(=O)N(C)[C@H](C(=O)N[C@H]3Cc4nc(cs4)-c4ccc5c(c4)c(c(-c4cccnc4[C@H](C)OC)n5CC)CC(C)(C)COC(=O)[C@@H]4CCCN(N4)C3=O)C(C)C)C[C@@H]21 (atropisomer, axis not shown) [Example A581]
EC50 [1]: < 5000 nM
IC50 [2]: 10 to 100 nM
IC50 [3]: 100 to 1000 nM
IC50 [4]: 100 to 1000 nM
IC50 [5]: 1000 to 10000 nM
IC50 [6]: 100 to 1000 nM
IC50 [7]: 100 to 1000 nM
IC50 [8]: 100 to 1000 nM
IC50 [9]: 100 to 1000 nM
IC50 [10]: 10 to 100 nM
IC50 [11]: 100 to 1000 nM
IC50 [12]: 100 to 1000 nM
IC50 [13]: 100 to 1000 nM
